Results as given in publication PMC6172315, “Relative Selectivity of Plant Cardenolides for Na^+/K^+-ATPases From the Monarch Butterfly and Non-resistant Insects” (Frontiers in Plant Science, 2018).
“Also recorded” adds a separate entry of the source. Like-named read-outs stand apart in the source and are kept apart here.

Tests used:
[1] = molecular target: S. gregaria-Na^+/K^+-ATPase (Schistocerca gregaria, UniProt A0A8E5JSN5); format: biochemical
Method: (§1) Danaus plexippus was caught in the field or purchased; E. core and S. gregaria were obtained commercially, with additional E. core from a laboratory colony. […] Briefly, brains dissected from butterflies stored at -80°C or recta from locusts were homogenized (individually or pooled) with an all glass grinder (Wheaton) in deionized water, frozen at -80°C, freeze-dried, and stored frozen until use. For in vitro assays, lyophilisates were dissolved in water, sonicated in an ultrasonic bath, and centrifuged to remove undissolved matter. All cardiac glycosides were tested at least with three biological replicates of Na^+/K^+-ATPase (i.e., Na^+/K^+-ATPase from genetically different specimens or pools of specimens).
(§2) Means of duplicate determinations (i.e., technical replicates) were used as data points. In consequence, each data point of a dose–response curve is the mean of at least three biological replicates based on two technical replicates, each. […] Here, technical replicates collected on the same 96-well plate were averaged and used as data points.
(§3) Stock solutions of cardiac glycosides, as well as pregnane glycosides, were prepared from crystalline compounds in DMSO. While concentrations of all other compounds were based on mass, calactin, and calotropin stock solutions were adjusted with HPLC using digitoxin as a reference.
(§4) Pairwise statistical comparisons of dose-response curves were carried out using the “compare datasets” option in OriginPro, which is based on an F-Test evaluating if the two curves are identical. Correlation analyses using log10-transformed IC50 values was also carried out with OriginPro. […] To analyze relative selectivity without a reference, we also plotted the fold differences between the IC50 values of individual cardenolides for non-adapted and adapted insect Na^+/K^+-ATPase and compared them to mammalian (lamb) Na^+/K^+-ATPase (Figure 2).

E. core-Na^+/K^+-ATPase = E. core-Na^+/K^+-ATPase (Euploea core, UniProt A0A5C0C9F5); test: In vitro inhibition assay of E. core Na+/K+-ATPase (phosphate release); format: biochemical; conditions: for inhibition of E. core Na^+/K^+-ATPase compared to ouabain: EC, F-test comparison of entire dose-response curves with ouabain; for IC50: read-out: IC50 E. core- Na^+/K^+-ATPase, Na+/K+-ATPase extracted from butterfly brains
Method: as §1, §2, §3, §4

[2] = molecular target: D. plexippus-Na^+/K^+-ATPase (Danaus plexippus, UniProt K0G7C4); test: In vitro inhibition assay of D. plexippus Na+/K+-ATPase (phosphate release); format: biochemical; conditions: for inhibition of D. plexippus Na^+/K^+-ATPase compared to ouabain: DP, F-test comparison of entire dose-response curves with ouabain; for IC50: read-out: IC50 D. plexippus- Na^+/K^+-ATPase, Na+/K+-ATPase extracted from butterfly brains; for fold difference between IC50 values, non-adapted (E. core/S. gregaria) vs adapted (D. plexippus) insect Na^+/K^+-ATPase: Figure 2, last number, S. gregaria values used for ouabain and digitoxigenin
Method: as §1, §2, §3, §4

porcine Na^+/K^+-ATPase = test: In vitro inhibition assay of porcine Na+/K+-ATPase; format: biochemical, pig; conditions: for inhibition of porcine Na^+/K^+-ATPase compared to ouabain: F-test comparison of dose-response curves with ouabain; for IC50: purified from pig brain, 0.01 U/ml in the assay
Method: Lyophilized Na^+/K^+-ATPase was dissolved in water to a concentration of 1 U/ml, stored at -80°C in single-use aliquots and diluted with H2O to 0.05 U/ml for use in the in vitro assay (final concentration in the assay 0.01 U/ml).
as §4

lamb Na^+/K^+-ATPase = test: Fold differences of IC50 between lamb and insect Na+/K+-ATPases; format: biochemical; conditions: lamb IC50 inferred from ref Paula et al., 2005; for fold difference between IC50 values, lamb vs adapted insect (D. plexippus) Na^+/K^+-ATPase: Figure 2, first number; for fold difference between IC50 values, lamb vs non-adapted insect (E. core/S. gregaria) Na^+/K^+-ATPase: Figure 2, second number
Method: as §4

[3] = SG; F-test comparison of entire dose-response curves with ouabain
[4] = read-out: IC50 S. gregaria- Na^+/K^+-ATPase; Na+/K+-ATPase extracted from locust recta
[5] = Na+/K+-ATPase extracted from locust recta; read-out: IC50 S. gregaria- Na^+/K^+-ATPase

Sequence of D. plexippus-Na^+/K^+-ATPase (K0G7C4 1-1009): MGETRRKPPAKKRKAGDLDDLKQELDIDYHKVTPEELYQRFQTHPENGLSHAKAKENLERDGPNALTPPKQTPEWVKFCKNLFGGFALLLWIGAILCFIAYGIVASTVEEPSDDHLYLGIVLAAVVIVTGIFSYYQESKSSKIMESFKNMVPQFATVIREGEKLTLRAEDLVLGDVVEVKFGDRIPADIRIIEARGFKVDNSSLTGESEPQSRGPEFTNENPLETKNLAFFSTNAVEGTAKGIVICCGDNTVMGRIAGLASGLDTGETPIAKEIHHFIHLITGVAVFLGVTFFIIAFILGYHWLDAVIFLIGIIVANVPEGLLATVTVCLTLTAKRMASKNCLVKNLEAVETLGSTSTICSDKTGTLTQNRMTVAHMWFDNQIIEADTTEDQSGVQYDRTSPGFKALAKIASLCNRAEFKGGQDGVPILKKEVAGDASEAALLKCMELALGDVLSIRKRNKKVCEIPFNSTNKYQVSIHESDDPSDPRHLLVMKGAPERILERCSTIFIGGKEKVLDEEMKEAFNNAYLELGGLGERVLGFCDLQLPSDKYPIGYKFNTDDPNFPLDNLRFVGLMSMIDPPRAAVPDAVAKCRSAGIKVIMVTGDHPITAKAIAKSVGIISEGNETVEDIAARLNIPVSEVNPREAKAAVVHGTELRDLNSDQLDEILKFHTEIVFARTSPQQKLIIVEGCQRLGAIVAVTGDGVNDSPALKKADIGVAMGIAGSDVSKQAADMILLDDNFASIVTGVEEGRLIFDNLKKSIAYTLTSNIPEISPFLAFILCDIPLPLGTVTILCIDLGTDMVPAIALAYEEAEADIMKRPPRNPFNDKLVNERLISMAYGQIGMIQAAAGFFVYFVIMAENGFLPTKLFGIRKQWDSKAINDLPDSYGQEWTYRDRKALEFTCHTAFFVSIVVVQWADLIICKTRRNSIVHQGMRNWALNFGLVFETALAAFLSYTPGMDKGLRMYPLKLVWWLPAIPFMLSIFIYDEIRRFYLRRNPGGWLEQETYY
Sequence of S. gregaria-Na^+/K^+-ATPase (A0A8E5JSN5 1-1039): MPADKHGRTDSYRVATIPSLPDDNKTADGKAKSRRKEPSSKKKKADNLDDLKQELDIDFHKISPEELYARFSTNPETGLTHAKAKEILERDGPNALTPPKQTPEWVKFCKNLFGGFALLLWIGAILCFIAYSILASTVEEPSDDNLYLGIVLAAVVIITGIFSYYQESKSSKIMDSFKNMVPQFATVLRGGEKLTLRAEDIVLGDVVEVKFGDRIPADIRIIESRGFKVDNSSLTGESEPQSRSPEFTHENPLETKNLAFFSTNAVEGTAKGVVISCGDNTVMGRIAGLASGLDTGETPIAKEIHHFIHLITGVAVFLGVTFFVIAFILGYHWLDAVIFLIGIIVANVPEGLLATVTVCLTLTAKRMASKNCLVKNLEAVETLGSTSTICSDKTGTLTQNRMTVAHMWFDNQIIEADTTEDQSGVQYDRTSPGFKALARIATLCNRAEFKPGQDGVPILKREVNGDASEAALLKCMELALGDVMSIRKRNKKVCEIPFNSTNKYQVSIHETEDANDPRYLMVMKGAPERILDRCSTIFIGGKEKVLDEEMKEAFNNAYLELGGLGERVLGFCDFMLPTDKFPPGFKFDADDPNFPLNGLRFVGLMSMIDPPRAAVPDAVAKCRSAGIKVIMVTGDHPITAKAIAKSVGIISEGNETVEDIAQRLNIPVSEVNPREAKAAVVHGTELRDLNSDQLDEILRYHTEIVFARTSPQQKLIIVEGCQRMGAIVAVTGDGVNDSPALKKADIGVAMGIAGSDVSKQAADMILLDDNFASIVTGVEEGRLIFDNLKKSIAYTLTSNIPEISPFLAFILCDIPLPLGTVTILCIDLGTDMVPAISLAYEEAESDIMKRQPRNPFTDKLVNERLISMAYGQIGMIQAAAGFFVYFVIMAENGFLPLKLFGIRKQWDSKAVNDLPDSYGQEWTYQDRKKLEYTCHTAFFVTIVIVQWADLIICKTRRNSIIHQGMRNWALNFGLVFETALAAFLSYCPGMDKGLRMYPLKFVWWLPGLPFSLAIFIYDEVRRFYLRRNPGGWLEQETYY
Sequence of E. core-Na^+/K^+-ATPase (A0A5C0C9F5 1-1013): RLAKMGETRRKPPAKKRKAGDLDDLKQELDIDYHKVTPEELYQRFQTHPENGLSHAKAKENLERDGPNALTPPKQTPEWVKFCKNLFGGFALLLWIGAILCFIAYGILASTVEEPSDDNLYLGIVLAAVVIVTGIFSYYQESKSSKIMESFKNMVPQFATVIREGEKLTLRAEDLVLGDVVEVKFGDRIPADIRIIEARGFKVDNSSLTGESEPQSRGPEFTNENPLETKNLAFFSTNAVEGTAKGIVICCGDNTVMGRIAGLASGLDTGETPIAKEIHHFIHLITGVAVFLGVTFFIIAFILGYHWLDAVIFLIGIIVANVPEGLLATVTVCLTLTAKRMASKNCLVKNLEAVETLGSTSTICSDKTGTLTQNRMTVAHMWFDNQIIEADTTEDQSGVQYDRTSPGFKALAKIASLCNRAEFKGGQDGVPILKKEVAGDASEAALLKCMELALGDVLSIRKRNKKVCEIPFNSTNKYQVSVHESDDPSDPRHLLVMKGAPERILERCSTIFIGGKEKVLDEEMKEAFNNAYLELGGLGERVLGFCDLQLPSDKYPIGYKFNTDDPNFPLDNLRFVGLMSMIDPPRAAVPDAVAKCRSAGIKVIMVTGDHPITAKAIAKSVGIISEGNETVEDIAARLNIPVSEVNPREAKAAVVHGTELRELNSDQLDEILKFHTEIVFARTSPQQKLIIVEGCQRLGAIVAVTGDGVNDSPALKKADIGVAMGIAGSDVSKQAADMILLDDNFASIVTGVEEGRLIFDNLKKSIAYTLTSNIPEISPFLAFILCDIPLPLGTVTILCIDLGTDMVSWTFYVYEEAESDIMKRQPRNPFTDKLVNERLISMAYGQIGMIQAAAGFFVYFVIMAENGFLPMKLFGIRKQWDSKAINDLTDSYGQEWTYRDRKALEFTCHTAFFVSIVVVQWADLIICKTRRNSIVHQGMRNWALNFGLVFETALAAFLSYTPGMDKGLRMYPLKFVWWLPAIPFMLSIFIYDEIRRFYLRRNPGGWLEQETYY

Compound | inhibition of S. gregaria Na^+/K^+-ATPase compared to ouabain [1, 3] | IC50 [1, 4] | inhibition of E. core Na^+/K^+-ATPase compared to ouabain (E. core-Na^+/K^+-ATPase) | IC50 (E. core-Na^+/K^+-ATPase) | inhibition of D. plexippus Na^+/K^+-ATPase compared to ouabain [2] | IC50 [2] | fold difference between IC50 values, non-adapted (E. core/S. gregaria) vs adapted (D. plexippus) insect Na^+/K^+-ATPase [2] | inhibition of porcine Na^+/K^+-ATPase compared to ouabain (porcine Na^+/K^+-ATPase) | IC50 (porcine Na^+/K^+-ATPase) | IC50 [1, 5] | fold difference between IC50 values, lamb vs adapted insect (D. plexippus) Na^+/K^+-ATPase (lamb Na^+/K^+-ATPase) | fold difference between IC50 values, lamb vs non-adapted insect (E. core/S. gregaria) Na^+/K^+-ATPase (lamb Na^+/K^+-ATPase) | inhibition by glycoside relative to corresponding genin (strophanthidin) on D. plexippus-Na^+/K^+-ATPase ([2]; cymarin vs strophanthidin)
C[C@]12CC[C@H](O)C[C@H]1CC[C@@H]1[C@@H]2CC[C@]2(C)[C@@H](C3=CC(=O)OC3)CC[C@]12O [digitoxigenin] | < ouabain; F2,6 = 17.5, p = 0.003 | 2.73 µM | < ouabain; F2,6 = 180.27, p < 0.001 | 4.12 µM | > ouabain; F2,6 = 54.05, p < 0.001 | 24.8 µM |  |  |  |  |  |  | 
C[C@@H]1C[C@H](O)[C@]2(O)O[C@@H]3C[C@@]4(C=O)[C@@H](CC[C@@H]5[C@@H]4CC[C@]4(C)[C@@H](C6=CC(=O)OC6)CC[C@]54O)C[C@H]3O[C@@H]2O1 [calotropin] |  |  | > ouabain; F2,7 = 54.31, p < 0.001 | 0.323 µM | > ouabain; F2,7 = 154.4, p < 0.001 | 5.36 µM | 17 x |  |  |  |  |  | 
C[C@]12CC[C@H]3[C@@H](CC[C@]4(O)C[C@@H](O)CC[C@]34C=O)[C@@]1(O)CC[C@@H]2C1=CC(=O)OC1 [strophanthidin] |  |  |  |  | > ouabain; F2,6 = 9.41, p = 0.01 | 64.8 µM |  |  |  |  |  |  | 
C[C@]12CC[C@H](O)C[C@H]1CC[C@@H]1[C@@H]2C[C@@H](O)[C@]2(C)[C@@H](C3=CC(=O)OC3)CC[C@]12O [digoxigenin] | < ouabain; F2,6 = 151.91, p < 0.001 | 11.8 µM |  |  | < ouabain; F2,6 = 30.1, p < 0.001 | 379 µM |  |  |  |  |  |  | 
C[C@]12CC[C@H](O[C@@H]3O[C@H](CO)[C@@H](O)[C@H](O)[C@H]3O)C[C@@H]1CC[C@@H]1[C@@H]2CC[C@]2(C)[C@@H](C3=CC(=O)OC3)CC[C@]12O [desglucouzarin] |  |  | nearly the same inhibitory effect as ouabain | 0.62 µM | strongly inhibitory effect; also recorded: > ouabain; F2,7 = 455.90, p < 0.001 | 6.42 µM | 10 x | more strongly than ouabain | 0.268 µM |  |  |  | 
C[C@H]1O[C@@H](O[C@H]2[C@@H](O)C[C@H](O[C@H]3[C@@H](O)C[C@H](O[C@H]4CC[C@@]5(C)[C@H](CC[C@@H]6[C@@H]5CC[C@]5(C)[C@@H](C7=CC(=O)OC7)CC[C@]65O)C4)O[C@@H]3C)O[C@@H]2C)C[C@H](O)[C@@H]1O [digitoxin, reference compound] | = ouabain; F2,6 = 5.07, p = 0.05 | 1.37 µM |  |  | > ouabain; F2,6 = 116.84, p < 0.001 | 14.8 µM |  |  |  |  |  |  | 
C[C@@H]1O[C@@H](O[C@H]2CC[C@]3(C=O)[C@H]4CC[C@]5(C)[C@@H](c6ccc(=O)oc6)CC[C@]5(O)[C@@H]4CC[C@]3(O)C2)[C@H](O)[C@H](O)[C@H]1O[C@@H]1O[C@H](CO)[C@@H](O)[C@H](O)[C@H]1O [hellebrin] |  |  |  |  | > ouabain; F2,6 = 1420.98, p < 0.001 | 0.842 µM |  |  |  |  |  |  | 
CC(=O)O[C@H]1C[C@H](O[C@H]2[C@@H](O)C[C@H](O[C@H]3[C@@H](O)C[C@H](O[C@H]4CC[C@@]5(C)[C@H](CC[C@@H]6[C@@H]5C[C@@H](O)[C@]5(C)[C@@H](C7=CC(=O)OC7)CC[C@]65O)C4)O[C@@H]3C)O[C@@H]2C)O[C@H](C)[C@H]1O[C@@H]1O[C@H](CO)[C@@H](O)[C@H](O)[C@H]1O [lanatoside C, reference compound] | < ouabain; F2,6 = 82.96, p < 0.001 |  |  |  | < ouabain; F2,6 = 17.23, p = 0.003 | 644 µM | 52 x |  |  | 12.4 µM | 1564 x | 30 x | 
C[C@@H]1C[C@@H](O)[C@]2(O)O[C@@H]3C[C@@]4(C=O)[C@@H](CC[C@@H]5[C@@H]4CC[C@]4(C)[C@@H](C6=CC(=O)OC6)CC[C@]54O)C[C@H]3O[C@@H]2O1 [calactin] |  |  | more potently than ouabain; also recorded: > ouabain; F2,7 = 496.50, p < 0.001 | 0.092 µM | more potently than ouabain; also recorded: > ouabain; F2,7 = 4706.35, p < 0.001 | 2.15 µM | 23 x |  |  |  |  |  | 
C[C@]12CC[C@H](O[C@@H]3O[C@H](CO[C@@H]4O[C@H](CO)[C@@H](O)[C@H](O)[C@H]4O)[C@@H](O)[C@H](O)[C@H]3O)C[C@@H]1CC[C@@H]1[C@@H]2CC[C@]2(C)[C@@H](C3=CC(=O)OC3)CC[C@]12O [uzarin] |  |  | far weaker inhibition than ouabain; also recorded: < ouabain; F2,7 = 39.97, p < 0.001 | 2.91 µM | substantially stronger inhibition than ouabain; also recorded: > ouabain; F2,7 = 70.04, p < 0.001 | 18.8 µM | 6 x | not different from the effect of ouabain | 0.452 µM |  |  |  | 
CO[C@H]1C[C@H](O[C@H]2CC[C@]3(C=O)[C@H]4CC[C@]5(C)[C@@H](C6=CC(=O)OC6)CC[C@]5(O)[C@@H]4CC[C@]3(O)C2)O[C@H](C)[C@H]1O [cymarin] | > ouabain; F2,6 = 6.37, p = 0.03 |  |  |  | > ouabain; F2,6 = 514.53, p < 0.001 | 6.99 µM | 21 x |  |  | 0.334 µM | 36 x | 2 x | ninefold
CC12CC(O)C3C(CCC4(O)CC(O)CC(O)C34CO)C1(O)CCC2C1=CC(=O)OC1 (stereo not shown) [ouabagenin] | < ouabain; F2,6 = 201.2, p < 0.001 |  |  |  | < ouabain; F2,6 = 80.0, p < 0.001 | 841 µM | 41 x |  |  | 20.4 µM | 1821 x | 44 x | 
C[C@]12CC[C@H](O)C[C@H]1CC[C@@H]1[C@@H]2CC[C@]2(C)[C@@H](C3=CC(=O)OC3)[C@@H](O)C[C@]12O [gitoxigenin] | much lower extent compared to ouabain |  |  |  |  | 256 µM | 7 x |  |  | 37.8 µM | 1633 x | 241 x | 
